Source: patent US20240109917A1 (ACTELION PHARMACEUTICALS LTD, priority 2020, published 2024)
Where two headings read alike, the source gives them in different places.

How the values were obtained:
VEGFR2, unphosphorylated = VEGFR2, unphosphorylated (Homo sapiens (Human), UniProt P35968); assay: VEGFR ADP GLO Assay; type: biochemical
PDGFRβ = PDGFRβ (Rattus norvegicus (Rat), UniProt Q05030); assay: PDGFRβ Cellular Assay (PDGFRb P-Y751 HTRF in A10 cells stimulated with PDGF-BB); type: cell-based
Procedure, shortened: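 Phospho-Y751 PDGFRβ was measured by HTRF in lysates of A10 rat cells. Cells received compound for 3 hours before PDGF-BB stimulation (100 ng/mL working stock).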

PDGFRβ, sequence (Q05030 32-1097): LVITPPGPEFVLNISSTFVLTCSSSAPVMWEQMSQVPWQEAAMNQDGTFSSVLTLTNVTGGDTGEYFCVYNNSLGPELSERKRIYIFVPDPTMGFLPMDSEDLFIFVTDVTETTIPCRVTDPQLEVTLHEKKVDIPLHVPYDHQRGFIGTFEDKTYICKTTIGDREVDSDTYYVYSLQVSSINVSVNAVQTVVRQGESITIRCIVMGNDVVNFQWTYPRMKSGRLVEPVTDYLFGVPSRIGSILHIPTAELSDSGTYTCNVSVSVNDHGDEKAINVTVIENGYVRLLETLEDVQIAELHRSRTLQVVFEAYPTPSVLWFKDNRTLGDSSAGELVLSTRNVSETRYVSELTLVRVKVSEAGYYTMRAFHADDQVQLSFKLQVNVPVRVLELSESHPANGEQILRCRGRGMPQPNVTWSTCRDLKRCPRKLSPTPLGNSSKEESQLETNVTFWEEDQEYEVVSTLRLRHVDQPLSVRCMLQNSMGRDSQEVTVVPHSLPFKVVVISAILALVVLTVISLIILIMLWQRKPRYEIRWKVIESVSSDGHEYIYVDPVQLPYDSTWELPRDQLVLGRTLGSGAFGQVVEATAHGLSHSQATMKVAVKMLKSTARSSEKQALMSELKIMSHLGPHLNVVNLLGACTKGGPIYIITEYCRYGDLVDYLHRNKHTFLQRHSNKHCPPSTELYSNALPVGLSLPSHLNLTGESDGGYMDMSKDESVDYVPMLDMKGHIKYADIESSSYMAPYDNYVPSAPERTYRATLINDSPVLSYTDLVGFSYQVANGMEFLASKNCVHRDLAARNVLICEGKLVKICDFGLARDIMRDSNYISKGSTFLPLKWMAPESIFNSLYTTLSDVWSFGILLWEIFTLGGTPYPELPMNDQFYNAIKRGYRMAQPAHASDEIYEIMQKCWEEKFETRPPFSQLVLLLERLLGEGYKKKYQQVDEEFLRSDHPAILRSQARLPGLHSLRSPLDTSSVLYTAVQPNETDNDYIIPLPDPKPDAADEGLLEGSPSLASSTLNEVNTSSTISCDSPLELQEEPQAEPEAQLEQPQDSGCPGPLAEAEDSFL
VEGFR2, unphosphorylated, sequence (P35968 20-1356): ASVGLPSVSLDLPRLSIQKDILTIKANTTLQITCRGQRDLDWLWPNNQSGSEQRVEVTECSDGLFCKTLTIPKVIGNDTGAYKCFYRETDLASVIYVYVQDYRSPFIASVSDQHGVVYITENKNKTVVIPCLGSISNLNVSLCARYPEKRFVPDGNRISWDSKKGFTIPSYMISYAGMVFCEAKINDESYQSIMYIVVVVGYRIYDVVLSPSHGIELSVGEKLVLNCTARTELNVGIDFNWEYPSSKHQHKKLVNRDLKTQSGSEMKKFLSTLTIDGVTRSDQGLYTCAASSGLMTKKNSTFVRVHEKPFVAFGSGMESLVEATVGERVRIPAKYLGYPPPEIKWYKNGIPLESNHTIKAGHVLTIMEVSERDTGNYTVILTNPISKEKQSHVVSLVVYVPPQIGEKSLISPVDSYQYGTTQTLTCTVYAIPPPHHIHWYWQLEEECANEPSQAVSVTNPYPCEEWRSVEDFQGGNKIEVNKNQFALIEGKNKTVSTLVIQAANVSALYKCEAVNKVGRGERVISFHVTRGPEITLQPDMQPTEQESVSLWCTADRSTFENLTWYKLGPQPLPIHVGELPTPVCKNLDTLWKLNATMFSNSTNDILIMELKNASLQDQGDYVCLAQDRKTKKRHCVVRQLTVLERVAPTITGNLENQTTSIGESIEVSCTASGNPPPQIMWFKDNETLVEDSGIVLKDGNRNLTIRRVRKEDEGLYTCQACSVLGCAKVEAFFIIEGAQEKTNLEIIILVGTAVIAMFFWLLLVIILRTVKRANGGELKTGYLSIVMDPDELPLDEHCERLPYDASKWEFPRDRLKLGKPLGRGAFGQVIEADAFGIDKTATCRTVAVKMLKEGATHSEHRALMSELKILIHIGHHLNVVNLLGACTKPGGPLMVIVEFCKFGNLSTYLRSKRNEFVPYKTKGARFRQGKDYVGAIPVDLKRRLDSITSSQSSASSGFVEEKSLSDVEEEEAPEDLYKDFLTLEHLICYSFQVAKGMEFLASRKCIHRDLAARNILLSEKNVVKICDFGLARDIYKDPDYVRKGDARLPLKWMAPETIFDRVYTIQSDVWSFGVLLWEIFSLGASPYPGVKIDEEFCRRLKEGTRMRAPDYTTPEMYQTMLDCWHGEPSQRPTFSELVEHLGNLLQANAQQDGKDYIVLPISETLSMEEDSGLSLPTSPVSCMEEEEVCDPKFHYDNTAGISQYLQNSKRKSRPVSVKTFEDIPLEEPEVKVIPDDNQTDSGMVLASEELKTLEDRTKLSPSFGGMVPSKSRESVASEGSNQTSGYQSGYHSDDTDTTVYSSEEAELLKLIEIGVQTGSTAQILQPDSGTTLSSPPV

SMILES | IC50 (VEGFR2, unphosphorylated) [nM] | IC50 (PDGFRβ; read-out: PDGFR Cellular IC50) [nM] | IC50 (PDGFRβ; PDGFR Cellular IC50) [nM]
Cc1ncc(NC(=O)CN2CC(C)(C)C2)cc1NC(=O)c1cnn2cc(-c3cnn(CCS(C)(=O)=O)c3)sc12 [Example 435, N-(5-(2-(3,3-Dimethylazetidin-1-yl)acetamido)-2-methylpyridin-3-yl)-2-(1-(2-(methylsulfonyl)ethyl)-1H-pyrazol-4-yl)pyrazolo[5,1-b]thiazole-7-carboxamide] | > 7500 | 139 | –
Cc1ncc(NC(=O)CN2CC(C)(C)C2)cc1NC(=O)c1cnn2cc(-c3cnn4c3CCC4)sc12 [Example 409, 2-(5,6-dihydro-4H-pyrrolo[1,2-b]pyrazol-3-yl)-N-(5-(2-(3,3-dimethylazetidin-1-yl)acetamido)-2-methylpyridin-3-yl)pyrazolo[5,1-b]thiazole-7-carboxamide] | 3370 | 1.6 | –
Cc1ncc(NC(=O)CN2CCCCC2)cc1NC(=O)c1cnn2cc(-c3cnn4c3OCCC4)sc12 [Example 419, 2-(6,7-dihydro-5H-pyrazolo[5,1-b][1,3]oxazin-3-yl)-N-(2-methyl-5-(2-(piperidin-1-yl)acetamido)pyridin-3-yl)pyrazolo[5,1-b]thiazole-7-carboxamide] | > 7500 | 2.6 | –
Cc1ncc(NC(=O)CN2CCCC[C@@H]2C)cc1NC(=O)c1cnn2cc(-c3cnn(CCO)c3)sc12 [Example 34, (S)-2-(1-(2-hydroxyethyl)-1H-pyrazol-4-yl)-N-(2-methyl-5-(2-(2-methyl-piperidin-1-yl)acetamido)pyridin-3-yl)pyrazolo[5,1-b]thiazole-7-carboxamide] | > 7500 | – | 30.3
